Assay results published in ChEMBL document CHEMBL1127249, “Design, structure activity and x-ray crystallographic studies of pseudosymmetrical nonpeptidyl HIV-1 protease inhibitors” (Bioorg Med Chem Lett, 1994).

Assays:
[1] = biological target: Human immunodeficiency virus type 1 protease (Human immunodeficiency virus 1, UniProt Q72874); assay: Compound was tested for inhibitory activity against recombinant HIV-1 protease using 125 I-SPA (scintillation proximity assay)
[2] = test system: Human immunodeficiency virus 1; assay: Antiviral activity against HIV-1; type: functional, organism-based

| SMILES | IC50 [1] | IC50 [2] |
| --- | --- | --- |
| O=C(N[C@H]1CCCC[C@@H]1NC(=O)[C@H](Cc1ccccc1)CC(O)C[C@@H](Cc1ccccc1)C(=O)N[C@H]1CCCC[C@@H]1NC(=O)c1cccnc1)c1cccnc1 | 600 nM | – |
| O=C(N[C@H]1CCCC[C@@H]1NC(=O)[C@H](Cc1ccccc1)CC(O)C[C@@H](Cc1ccccc1)C(=O)N[C@H]1CCCC[C@@H]1NC(=O)c1cc2ccccc2cn1)c1cc2ccccc2cn1 | 45 nM | – |
| O=C(N[C@H]1CCCC[C@@H]1NC(=O)[C@H](Cc1ccccc1)CC(O)C[C@@H](Cc1ccccc1)C(=O)N[C@H]1CCCC[C@@H]1NC(=O)c1ccc2ccccc2n1)c1ccc2ccccc2n1 | 40 nM | 2 µM |
| O=C(N[C@H]1CCCC[C@@H]1NC(=O)[C@H](Cc1ccccc1)CC(O)C[C@@H](Cc1ccccc1)C(=O)N[C@H]1CCCC[C@@H]1NC(=O)c1ccncc1)c1ccncc1 | 350 nM | > 20 µM |
| CC(=O)N[C@H]1CCCC[C@@H]1NC(=O)[C@H](Cc1ccccc1)CC(O)C[C@@H](Cc1ccccc1)C(=O)N[C@H]1CCCC[C@@H]1NC(C)=O | 3000 nM | – |
| O=C(N[C@H]1CCCC[C@@H]1NC(=O)[C@H](Cc1ccccc1)CC(O)C[C@@H](Cc1ccccc1)C(=O)N[C@H]1CCCC[C@@H]1NC(=O)c1ccccn1)c1ccccn1 | 400 nM | > 20 µM |
| CC(C)(C)OC(=O)N[C@H]1CCCC[C@@H]1NC(=O)[C@H](Cc1ccccc1)CC(O)C[C@@H](Cc1ccccc1)C(=O)N[C@H]1CCCC[C@@H]1NC(=O)OC(C)(C)C | > 10000 nM | – |
